# According to patent US4975354A, “Photographic element comprising an ethyleneoxy-substituted amino compound and process adapted to provide high constrast development” (Eastman Kodak Company, priority 1989, dated 1990):
# Assay: Example 33: Film A (no incorporated booster) in Developer A versus Film B (Compound XIII) in Developer B, 80 seconds at 30° C.
# Conditions: Table III data
# Protocol: This example was carried out using photographic elements similar to those of Examples 1 to 32 except that the nucleating agent employed was a mixture of the hydrazine compound: [drawing 33] at a coverage of 0.0121 g/m^2 and the hydrazine compound: [drawing 34] at a coverage of 0.00237 g/m^2.
# A film designated Film A was prepared with no incorporated booster compound, while a film designated Film B contained 0.0861 g/m^2 of Compound XIII. A developing solution, designated Developer A, was formulated from the following ingredients: […]
# A second developing solution, designated Developer B, differed from Developer A in that the 3-diethylamino-1,2-propanediol was omitted.
# Film A was developed in Developer A at a pH of 11.6 for 80 seconds at 30° C. Film B was developed in Developer B for 80 seconds at 30° C. at pH levels of 11.6, 11.5 and 11.4. The pH's of the developing solutions were adjusted to the designated levels using concentrated potassium hydroxide and concentrated hydrochloric acid.
smiles,measurement,value
"CCN(CC)CC(O)CO (stereo not shown) [3-diethylamino-1,2-propanediol]",booster activity (in words),highly effective booster compound
